Data: patent US10702526B2, “Inhibitors of immune checkpoint modulators and related methods” (eFFECTOR Therapeutics, Inc., priority 2015, dated 2020)

What was measured:
[1] = tested on: PD-1 expression on Jurkat cells; experiment: PD-1 expression on PHA/PMA-activated Jurkat T cells (flow cytometry); format: cell-based, human; conditions: Jurkat T cell assay, MNK-specific inhibitors
Experimental: (§1) To examine the effect of MNK-specific inhibitors on PD-1 expression, Jurkat cells (Clone E6.1, ATCC, transformed T cells) were used, which express PD-1 when activated through T cell receptor (TCR) signaling. Briefly, Jurkat cells were grown in 1×RPMI with 1× Pen/Strep, and 10% FBS, then about 3×10^6 Jurkat cells were activated in presence of 1 μg/mL PHA (Sigma) and 50 ng/mL PMA (Sigma). Test Cells were treated simultaneously with various concentrations of MNK-specific inhibitor Compound 107 (0, 0.01, 0.1, 1, 3 and 10 μM). After 48 hours, culture supernatants were harvested and examined via sandwich ELISA for the presence of IL-2 using human IL-2 ELISA DuoSet® (R&D Systems, Minneapolis, Minn.). The level of PD-1 on Jurkat cells was examined by incubating cells with fixable dead cell stain (1:20,000; BD Biosciences, San Jose, Calif.) for 15 minutes at 4° C., washed twice with flow staining buffer (1×PBS, 4% FBS and 1 mM EDTA), incubated with human FcR block, then contacted with allophycocyanin (APC) conjugated anti-PD-1 antibody (Biolegend, San Diego, Calif.) for 30 minutes at 4° C., washed two times with flow buffer, and finally cells were fixed with fixation buffer for 20 minutes at 4° C. After fixation, cells were washed twice with flow buffer and re-suspended in flow buffer and assessed for fluorescence using BD Accuri C6 flow cytometer. Data were analyzed using the C6 cytometer software (BD Biosciences, San Jose, Calif.).

Jurkat cells = experiment: Jurkat T cell viability (fixable dead cell stain); format: cell-based; conditions: Jurkat T cell assay, MNK-specific inhibitors
Experimental: as §1

[2] = tested on: IL-10 production in primary T cells; experiment: IL-10 production by activated primary T cells; format: cell-based, human

SMILES | % PD-1 + Inhibition [1] | Cell Death (Jurkat cells) | % IL-10 Inhibition [2]
Cc1cc(-n2ccc3c(N)ncnc32)nc2c1C(=O)NC21CCCCC1 [Compound 652] | ++++ (++++ = 75-100%) | − (− = 0-10%) | 
Cc1cc(Nc2ncnc(N)c2Cl)c(=O)n2c1C(=O)N[C@]21CCCNC1 [Compound 969] | +++ (+++ = 50-75%) | − (− = 0-10%) | 
Cc1cc(Nc2ncnc(N)c2C)nc2c1C(=O)NC21CCCCC1 [Compound 622] | ++++ (++++ = 75-100%) | − (− = 0-10%) | 
CCCN1CCC2(CC1)NC(=O)c1c(C)cc(Nc3ncnc(N)c3Cl)c(=O)n12 [Compound 776] | + (+ = 10-25%) | − (− = 0-10%) | 
Cc1cc(Nc2ncnc(N)c2OCCN)c(=O)n2c1C(=O)NC21CCCCC1 [Compound 827] | ++ (++ = 25-50%) | − (− = 0-10%) | 
Cc1cc(Nc2ncnc(N)c2Cl)c(=O)n2c1C(=O)NC21CCCNC1 (stereo not shown) [Compound 750] | +++ (+++ = 50-75%) | − (− = 0-10%) | ++++ (++++ = 75-100%)
Cc1cc(Nc2ncnc(N)c2C)c(=O)n2c1C(=O)NC21CCN(CCC(F)(F)F)CC1 [Compound 753] | − (− = 0-10%) | − (− = 0-10%) | 
Cc1cc(Nc2ncnc(N)c2Cl)c(=O)n2c1C(=O)NC21CCN(C2CC2)CC1 [Compound 752] | − (− = 0-10%) | − (− = 0-10%) | 
Cc1cc(Nc2ncnc(N)c2C)c(=O)n2c1C(=O)NC21CCCN(C)C1 (stereo not shown) [Compound 917] | ++ (++ = 25-50%) | + (+ = 10-25%) | 
Cc1cc(Nc2ncnc(N)c2Cl)c(=O)n2c1C(=O)NC21CCN(C)C(C)(C)C1 (stereo not shown) [Compound 1053] | + (+ = 10-25%) | − (− = 0-10%) | 
Cc1cc(Nc2ncnc(N)c2Cl)c(=O)n2c1C(=O)NC21CCN(CCC(F)(F)F)CC1 [Compound 775] | − (− = 0-10%) | − (− = 0-10%) | 
Cc1cc(Nc2ncnc(N)c2C)cc2c1C(=O)NC21CCCCC1 [Compound 440] | ++++ (++++ = 75-100%) | − (− = 0-10%) | 
Cc1cc(Nc2ncnc(N)c2Cl)c(=O)n2c1C(=O)N[C@@]21CCCNC1 [Compound 970] | +++ (+++ = 50-75%) | − (− = 0-10%) | 
Cc1cc(Nc2ncnc(N)c2Cl)c(=O)n2c1C(=O)NC21CC(C)N(C)C(C)C1 (stereo not shown) [Compound 1031] | +++ (+++ = 50-75%) | +++ (+++ = 50-75%) | 
Cc1cc(Nc2ncnc(N)c2C)c(=O)n2c1C(=O)NC21CCN(CC(F)F)CC1 [Compound 590] | ++ (++ = 25-50%) | − (− = 0-10%) | ++++ (++++ = 75-100%)
Cc1cc(Nc2ncnc(N)c2Cl)c(=O)n2c1C(=O)NC21CCN(C)CC1(C)C (stereo not shown) [Compound 1008] | +++ (+++ = 50-75%) | ++ (++ = 25-50%) | 
Cc1cc(Nc2ncnc(N)c2C)c(=O)n2c1C(=O)NC21CCOCC1 [Compound 626] | ++ (++ = 25-50%) | − (− = 0-10%) | 
Cc1cc(Nc2ncnc(N)c2Cl)c(=O)n2c1C(=O)NC21CNCCC1(C)C (stereo not shown) [Compound 1090] | +++ (+++ = 50-75%) | + (+ = 10-25%) | 
Cc1cc(Nc2ncnc(N)c2Cl)nc2c1C(=O)NC21CCCCC1 [Compound 624] | ++++ (++++ = 75-100%) | + (+ = 10-25%) | 
Cc1cc(Nc2ncnc(N)c2C)c(=O)n2c1C(=O)NC21CNCCC1(C)C (stereo not shown) [Compound 1091] | ++ (++ = 25-50%) | − (− = 0-10%) | 
Cc1cc(Nc2ncnc(N)c2C)c(=O)n2c1C(=O)NC21CCN(CC(F)F)CC1(C)C (stereo not shown) [Compound 1092] | ++ (++ = 25-50%) | − (− = 0-10%) | 
Cc1cc(Nc2ncnc(N)c2Cl)c(=O)n2c1C(=O)NC21CCN(CC(F)F)CC1 [Compound 611] | ++ (++ = 25-50%) | − (− = 0-10%) | 
Cc1cc(Nc2ncnc(N)c2Cl)c(=O)n2c1C(=O)NC21CCCCC1 [Compound 474] | +++ (+++ = 50-75%) | − (− = 0-10%) | ++++ (++++ = 75-100%)
Cc1cc(Nc2ncnc3[nH]ccc23)cc2c1C(=O)NC21CCCCC1 [Compound 637] | ++++ (++++ = 75-100%) | ++ (++ = 25-50%) | 
Cc1cc(Nc2ncnc(N)c2Cl)cc2c1C(=O)NC21CCCCC1 [Compound 462] | ++++ (++++ = 75-100%) | + (+ = 10-25%) | 
Cc1cc(Nc2cc(N)ncn2)c(=O)n2c1C(=O)NC21CCCC1.Cl [Compound 98] | +++ (+++ = 50-75%) | − (− = 0-10%) | 
